From paper PMC5678437, “A new antagonist for CCR4 attenuates allergic lung inflammation in a mouse model of asthma” (Scientific Reports, 2017) come the findings set out here.

Structures are written as SMILES.

What all share (assay type): cell-based
In one data set the target is T1, CXCR4 (Homo sapiens, UniProt P61073).
T1 construct: expressed in transfected cells; host or cells: HEK293; plasmid from Chinese National Human Genome Center
Put plainly: Chemotaxis assay for receptor specificity, HEK293-CXCR4. Particulars: compound as chemoattractant in lower chamber, 0.2, 1, 5, 25 μM. As for the experimental part: (§1) HEK293 cells were transfected with different chemokine receptors. Compound 8a with DMSO was diluted to 0.2 mM, 1 mM, 5 mM and 25 mM, and then we used RPMI 1640 medium containing 0.1% BSA for dilution. The final concentration is: 0.2 μM, 1 μM, 5 μM and 25 μM. DMSO was also diluted 1000-fold with 0.1% BSA RPMI 1640 medium. Chemokines was also diluted to an appropriate concentration. The dilutions of Compound 8a, 1‰ DMSO, the corresponding chemokines of different receptors and 0.1% BSA RPMI 1640 medium were placed in the lower chambers (27.5 μl/well). The transfected HEK293 cells were resuspended in the same medium at a density of 1 × 10^6 cells/ml and added to the upper chambers (55 μl/well).

A further data set deals with T2, CXCR1 (Homo sapiens, UniProt P25024).
T2 construct: expressed in transfected cells; host or cells: HEK293; plasmid gift of Dr. Philip M. Murphy (NIAID, NIH)
T2 sequence (P25024 1-350): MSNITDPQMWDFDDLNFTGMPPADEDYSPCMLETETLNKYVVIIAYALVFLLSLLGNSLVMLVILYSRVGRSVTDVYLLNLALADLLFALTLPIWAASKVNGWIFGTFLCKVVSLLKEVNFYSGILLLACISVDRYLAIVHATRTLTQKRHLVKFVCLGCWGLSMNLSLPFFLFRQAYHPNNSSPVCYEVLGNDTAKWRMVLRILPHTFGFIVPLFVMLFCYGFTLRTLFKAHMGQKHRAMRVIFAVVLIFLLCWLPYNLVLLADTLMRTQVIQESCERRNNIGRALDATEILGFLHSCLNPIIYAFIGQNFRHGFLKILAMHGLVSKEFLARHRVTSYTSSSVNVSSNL
Put plainly: Chemotaxis assay for receptor specificity, HEK293-CXCR1. Particulars: compound as chemoattractant in lower chamber, 0.2, 1, 5, 25 μM. The method, then:
as §1

A further data set has as its target T3, CCR4 (Homo sapiens, UniProt P51679).
T3 construct: expressed in transfected cells; cell membrane extract
T3 sequence (P51679 1-360): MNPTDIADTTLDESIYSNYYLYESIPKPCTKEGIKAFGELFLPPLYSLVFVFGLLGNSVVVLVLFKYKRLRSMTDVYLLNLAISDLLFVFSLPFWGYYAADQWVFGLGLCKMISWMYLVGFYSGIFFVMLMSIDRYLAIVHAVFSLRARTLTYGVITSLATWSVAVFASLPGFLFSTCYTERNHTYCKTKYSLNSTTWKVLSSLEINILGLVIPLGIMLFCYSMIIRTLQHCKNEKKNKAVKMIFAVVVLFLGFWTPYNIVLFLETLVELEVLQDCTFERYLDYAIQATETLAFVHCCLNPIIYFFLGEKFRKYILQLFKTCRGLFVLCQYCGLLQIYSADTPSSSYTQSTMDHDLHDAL
In words: Chemotaxis inhibition assay, pcDI-CCR4-transfected HEK293 cells. Particulars: 1 μM compound, 30 min pretreatment; C27 100 ng/ml; compared with compound 22 and compound 6b. The method, then: Chemokine receptor expression plasmid was transiently transfected into HEK293 by electroporation at 120 V for 20 ms, using an electric pulse generator (Electro Square Porator ECM 830; BTX, San Diego, CA). Forty-eight-well micro chemotaxis chambers (Neutroprobe, Bethesda, MD, USA) were used in this assay. Forty-eight hours later, the cells were pretreated with compounds or compounds dissolved medium (1‰ DMSO) for 30 min at 37 °C prior to stimulation with chemoattractant. Chemoattractant diluted in RPMI 1640 medium supplemented with 0.1% bovine serum albumin (BSA) was placed in the lower chambers (27.5 μl/well). In these assays, CCL22 and CCL17 (Peprotech, Rocky Hill, NJ, USA) were used as chemoattractant and the final concentrations of chemoattractant were 10 ng/ml and 80 ng/ml respectively. The pcDI-CCR4-transfected HEK293 cells were resuspended in the same medium at a density of 1 × 10^6 cells/ml and added to the upper chambers (55 μl/well). […] Cells that migrated into each filter were counted in five randomly selected high-power fields (400 × ) per well. […] The chemotactic index was calculated and expressed as the number of cells that migrated to the sample over the number of cells that migrated to the control medium.

The subject of the next data set is HEK293-CCR4 cells. In words: MTT assay. The note with it: 1, 2, 4, 8, 16 μM, till the higher concentration (16 μM), 48 h. As for the experimental part: pcDI-CCR4-transfected HEK293 cells, at the density of 800 cells /well, were plated overnight in 96-well plates. After plated overnight, different concentrations of compound 22 and compound 8a were added in cells and the final concentrations of these two compounds were: 1 μM, 2 μM, 4 μM, 8 μM and 16 μM. We set four wells for cells in each group which were incubated with each concentration of the compounds, and the cells were cultured for 48 h or 72 h. At 48 h or 72 h, 10 μl of the 5 mM MTT were added in cells and 100 μl of cell lysis buffer were added 4–6 h later. After added cell lysis buffer for an hour, microplate autoreader were used for measuring optical density (OD) of cells at 570 nm, and the ratio of OD in each group and that of DMSO group were valued as cell survival rates of each group.

T1 sequence (P61073 1-356 isoform P61073-2): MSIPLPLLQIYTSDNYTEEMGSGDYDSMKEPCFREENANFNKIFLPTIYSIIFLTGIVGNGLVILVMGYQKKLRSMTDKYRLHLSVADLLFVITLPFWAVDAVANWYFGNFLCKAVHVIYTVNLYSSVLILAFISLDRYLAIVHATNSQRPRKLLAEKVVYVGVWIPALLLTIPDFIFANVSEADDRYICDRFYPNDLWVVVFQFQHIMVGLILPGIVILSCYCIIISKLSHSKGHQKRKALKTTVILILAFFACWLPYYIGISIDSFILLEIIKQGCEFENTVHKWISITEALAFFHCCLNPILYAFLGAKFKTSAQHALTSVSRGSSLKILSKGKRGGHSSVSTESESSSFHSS

As for `O=C(C1CCCCN1)N1CCN(c2nc(Cl)cc(NCc3ccc(Cl)cc3Cl)n2)CC1` (stereo not shown) [compound 8a, {4-[4-Chloro-6-(2,4-dichloro-benzylamino)-pyrimidin-2-yl]-piperazin-1-yl}-piperidin-2-yl-methanone], the “chemotaxis effect of the compound on HEK293-CXCR4” value on CXCR4 is “didn’t exert chemotaxis effects”. For the same compound, the “chemotaxis effect of the compound on HEK293-CXCR1” value on CXCR1 is “didn’t exert chemotaxis effects”. Further, the “inhibition of chemotaxis of CCR4 transfected HEK293 to C27” value at CCR4 is “more positive efficiency”. Besides, in the data set with HEK293-CCR4 cells, the “cytotoxicity (MTT)” value was “no obvious cytotoxicity”.
